Laboratory results from patent US9738591B2, “Antimicrobial compounds” (priority 2009, dated 2017).
Read-outs that look alike come from different tables or passages of the source.

Assays:
[1] = tested on: L929 cells; assay: Cytotoxicity, neutral red assay; type: cell-based; details: for ratio of the well's OD compared to the OD of the negative control, Average (SD) (n = 2): 24 h, ratios ≦0.5 indicate a cytostatic effect
Procedure: L929 cells grown to approximately 80% confluency in HGM-M were washed with Hanks, trypsonised to detach the cells from the flask, then diluted to 10^5 cells/ml in HGM-M and 200 μl used to inoculate the wells of a 96-well microtitre tray. After incubation for 24 h at 37° C., adherent cells were washed with Hanks and then 100 μl HGM-M was added to the wells. Fresh TSB007 master stock solution (10 mg/ml) was serially 10-fold diluted in HGM-M to make solutions of 1000, 100, 10 and 1 μg/ml of TSB007. To the wells of the microtitre tray, 100 μl of these TSB007 solutions were also added, giving final concentrations of 500, 50, 5 and 0.5 μg/ml of TSB007. The same dilutions of DMSO were prepared and tested to check that cytotoxic activity was not due to the DMSO. A negative control was prepared containing only HGM-M, and a positive control was prepared by adding 100 μl of carboplatin (10 mg/ml; Mayne Pharma Pty Ltd, Australia) to wells containing 100 μl HGM-M. Controls and dilutions of TSB007 and DMSO were prepared in duplicate.
After 24 h shaking at 37° C., cytotoxicity was quantified using the neutral red assay. The cells were washed with Hanks then 200 μl HGM-M and 20 μl Neutral Red (3.3 g/L; Sigma-Aldrich) were added to each well. After 2 h shaking at 37° C., cells were washed twice with PBS then 200 μl of 1% acetic acid in 50% EtOH was added to each well to solubilise the stain. After 15 min shaking at 37° C. the OD690 nm of the wells was measured and subtracted from the OD540 nm. Results were then blanked against wells to which no cells had been added, and converted to a ratio of the OD of the negative control. Ratios […] indicated a cytostatic effect. Testing was performed on two separate occasions.

[2] = tested on: Klebsiella edwardsii NCTC 10896; assay: Disk diffusion; type: cell-based; details: 10 mg/ml, 20 μl
[3] = tested on: Clostridium difficile NCTC 43593; assay: Disk diffusion; type: cell-based; details: 10 mg/ml, 20 μl, BA - prereduced, anaerobe
Procedure: (§1) Plates were incubated at 35° C.

[4] = tested on: Shigella flexneri NCTC 8192; assay: Disk diffusion; type: cell-based; details: 10 mg/ml, 20 μl; repeat
Procedure: as §1

[5] = tested on: Stenotrophomonas maltophilia M2495; assay: Disk diffusion; type: cell-based; details: 10 mg/ml, 20 μl, strain M2495
[6] = tested on: Vibrio cholerae (non-toxigenic) M3695; assay: Disk diffusion; type: cell-based; details: 10 mg/ml, 20 μl, (other strain?)
[7] = tested on: Enterococcus faecium ATCC 19434; assay: Disk diffusion; type: cell-based; details: 10 mg/ml, 20 μl
[8] = tested on: Streptococcus pneumoniae strain 12213; assay: Disk diffusion; type: cell-based; details: 10 mg/ml, 20 μl
[9] = tested on: Clostridium perfringens ATCC 2734; type: cell-based; details: 10 mg/ml, 20 μl, BA - prereduced, anaerobe
[10] = tested on: Escherichia coli NCTC 10538; assay: Disk diffusion; details: 10 mg/ml, 20 μl; repeat; value printed with '?'
[11] = tested on: Bacillus cereus ATCC 13061; assay: Disk diffusion; details: 10 mg/ml, 20 μl
[12] = tested on: Enterococcus faecalis NCTC 775; assay: Disk diffusion; details: 10 mg/ml, 20 μl
[13] = tested on: Listeria monocytogenes NCTC 7973; assay: Disk diffusion; details: 10 mg/ml, 20 μl
[14] = tested on: Micrococcus luteus ATCC 10240; assay: Disk diffusion; details: 10 mg/ml, 20 μl
[15] = tested on: Staphylococcus aureus (methicillin resistant) NCTC 10442; assay: Disk diffusion; details: for zone of inhibition at 10000 µg/mL: Staphylococcus aureus
[16] = tested on: Staphylococcus epidermidis ATCC 12228; assay: Disk diffusion; details: for zone of inhibition at 10000 µg/mL: Staphylococcus epidermidis
[17] = tested on: Staphylococcus xylosus ATCC 29971; assay: Disk diffusion; details: 10 mg/ml, 20 μl
[18] = tested on: Streptococcus pneumoniae ATCC 49619; assay: Disk diffusion; details: 10 mg/ml, 20 μl, Mueller Hinton + Blood & Incubated in 5% CO2

O=C(O)c1ccc(/C=C/c2cc(/C=C/c3ccc(C(=O)O)cc3)cc(/C=C/c3ccc(C(=O)O)cc3)c2)cc1 [TSB007]
ratio of the well's OD compared to the OD of the negative control, Average (SD) (n = 2) ([1]; 0.5 μg/ml): 0.846 (0.285)
ratio of the well's OD compared to the OD of the negative control, Average (SD) (n = 2) ([1]; 5 μg/ml): 0.882 (0.021)
ratio of the well's OD compared to the OD of the negative control, Average (SD) (n = 2) ([1]; 50 μg/ml): 0.867 (0.030)
cytostatic effect on L929 cells ([1]; 500 μg/ml): cytostatic
ratio of the well's OD compared to the OD of the negative control, Average (SD) (n = 2) ([1]; 500 μg/ml): 0.384 (0.009)
cytostatic effect on L929 cells ([1]; 0.5-50 μg/ml): not significantly cytostatic
Zone diameters, Repeat Results [2]: 9 trim
Zone diameters, 24 h TSB007 ([3]; 24 h): 10 trim
Zone diameters, 48 h TSB007 ([3]; 48 h): 10 trim
Zone diameters, Repeat Results [4]: 8.5 trim
Zone diameters, Repeat Results [5]: 9 trim
Zone diameters, Repeat Results [6]: 7 trim
Zone diameters, 24 h TSB007 ([7]; 24 h): 11 trim
Zone diameters, 48 h TSB007 ([7]; 48 h): 10 trim
Zone diameters, Repeat Results [8]: 26 trim
Zone diameters, 24 h TSB007 ([9]; 24 h): 12 trim
Zone diameters, 48 h TSB007 ([9]; 48 h): 12 trim
Zone diameters, Repeat Results [10]: 7.5? trim
Zone diameters, 24 h TSB007 ([11]; 24 h): 10 trim
Zone diameters, 48 h TSB007 ([11]; 48 h): 9 trim
Zone diameters, Repeat Results ([11]; repeat): 9 trim
Zone diameters, 24 h TSB007 ([12]; 24 h): 10 trim
Zone diameters, 48 h TSB007 ([12]; 48 h): 10 trim
Zone diameters, Repeat Results ([12]; repeat): 8 trim
Zone diameters, 24 h TSB007 ([13]; 24 h): 9 trim
Zone diameters, 48 h TSB007 ([13]; 48 h): 9 trim
Zone diameters, Repeat Results ([13]; repeat, value printed with '?'): 15? trim
Zone diameters, 24 h TSB007 ([14]; 24 h): 26 trim
Zone diameters, 48 h TSB007 ([14]; 48 h): 26 trim
Zone diameters, Repeat Results ([14]; repeat): 32 trim
Zone diameters, 24 h TSB007 ([15]; 10 mg/ml, 20 μl, 24 h): 18 trim
Zone diameters, 48 h TSB007 ([15]; 10 mg/ml, 20 μl, 48 h): 9 trim
Zone diameters, Repeat Results ([15]; 10 mg/ml, 20 μl, repeat): 23 trim
zone of inhibition at 10000 µg/mL ([15]; NCTC10442, 24 h, read-out: Zone diameters, 24 h AnO2): 17 mm
zone of inhibition at 10000 µg/mL ([15]; NCTC10442, 24 h, read-out: Zone diameters, 24 h O2): 14 mm
zone of inhibition at 10000 µg/mL ([15]; NCTC10442, 48 h, read-out: Zone diameters, 48 h AnO2): 17 mm
zone of inhibition at 10000 µg/mL ([15]; NCTC10442, 48 h, read-out: Zone diameters, 48 h O2): 11 mm
Zone diameters, 24 h TSB007 ([16]; 10 mg/ml, 20 μl, 24 h): 22 trim
Zone diameters, 48 h TSB007 ([16]; 10 mg/ml, 20 μl, 48 h): 22 trim
Zone diameters, Repeat Results ([16]; 10 mg/ml, 20 μl, repeat): 20 trim
zone of inhibition at 10000 µg/mL ([16]; ATCC12228, 24 h, read-out: Zone diameters, 24 h AnO2): 22 mm
zone of inhibition at 10000 µg/mL ([16]; ATCC12228, 24 h, read-out: Zone diameters, 24 h O2): 18 mm
zone of inhibition at 10000 µg/mL ([16]; ATCC12228, 48 h, read-out: Zone diameters, 48 h AnO2): 22 mm
zone of inhibition at 10000 µg/mL ([16]; ATCC12228, 48 h, read-out: Zone diameters, 48 h O2): 18 mm
Zone diameters, 24 h TSB007 ([17]; 24 h): 17 trim
Zone diameters, Repeat Results ([17]; repeat): 18 trim
Zone diameters, 24 h TSB007 ([18]; 24 h): 16 trim
Zone diameters, 48 h TSB007 ([18]; 48 h): 16 trim
